Test results reported in ChEMBL document CHEMBL1201862, “PubChem BioAssay data set” (2004).
Activity calls are given as the source filed them.

Tests used:
[1] = test system: Streptococcus sp. 'group A'; assay: Streptococcus pyogenes SK(-)GAS viability under kanamycin – luminescence, BacTiterGlo, confirmation, counter-screen for streptokinase expression inhibitor project, dose response (AID 1900); type: functional, organism-based
[2] = target: T1, Short transient receptor potential channel 4 (Mus musculus, UniProt Q9QUQ5); assay: calcium entry via TRPC4 opening agents – cell-based, HEK293 TRPC4/mu-opioid, Fluo-4 calcium, dose response (AID 434937); type: functional
T1 sequence (Q9QUQ5 whole entry): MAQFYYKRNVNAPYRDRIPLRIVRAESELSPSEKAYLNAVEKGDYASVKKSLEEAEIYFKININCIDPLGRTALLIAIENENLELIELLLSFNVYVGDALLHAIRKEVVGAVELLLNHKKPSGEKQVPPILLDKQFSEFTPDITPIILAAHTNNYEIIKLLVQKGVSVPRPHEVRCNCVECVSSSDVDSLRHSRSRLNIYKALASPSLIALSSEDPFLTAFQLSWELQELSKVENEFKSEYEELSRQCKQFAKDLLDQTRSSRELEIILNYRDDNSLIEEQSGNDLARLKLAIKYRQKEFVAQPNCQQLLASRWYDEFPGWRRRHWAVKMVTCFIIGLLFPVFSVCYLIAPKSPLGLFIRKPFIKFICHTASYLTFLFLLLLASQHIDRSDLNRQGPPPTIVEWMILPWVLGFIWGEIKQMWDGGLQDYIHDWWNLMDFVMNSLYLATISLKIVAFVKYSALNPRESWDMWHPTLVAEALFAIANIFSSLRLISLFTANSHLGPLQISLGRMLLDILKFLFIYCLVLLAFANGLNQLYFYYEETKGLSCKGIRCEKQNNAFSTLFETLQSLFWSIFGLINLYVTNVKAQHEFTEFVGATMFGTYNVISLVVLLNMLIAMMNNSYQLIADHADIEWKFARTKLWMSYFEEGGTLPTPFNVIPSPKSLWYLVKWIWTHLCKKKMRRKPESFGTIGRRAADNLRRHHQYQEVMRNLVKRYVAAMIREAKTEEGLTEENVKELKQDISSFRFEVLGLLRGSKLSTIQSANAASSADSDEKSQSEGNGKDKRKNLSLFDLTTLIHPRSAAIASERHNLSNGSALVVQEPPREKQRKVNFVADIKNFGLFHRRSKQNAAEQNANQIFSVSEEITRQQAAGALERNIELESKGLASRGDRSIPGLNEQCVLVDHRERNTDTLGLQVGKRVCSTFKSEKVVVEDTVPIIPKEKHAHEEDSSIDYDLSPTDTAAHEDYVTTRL

Streptococcus = assay: GAS UMAA2166 growth inhibition – luminescence, BacTiterGlo, counter-screen for streptokinase expression inhibitor project, dose response (AID 1915); type: functional, organism-based;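 further: potency for reduction of bacterial viability or growth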
Vero = assay: viability of Vero cells under compound – cytotoxicity control for flavivirus capping enzyme inhibitors (AID 588742); type: functional; conditions: Chlorocebus sabaeus
[3] = target: T2, Replicative DNA helicase DnaB (Mycobacterium tuberculosis, UniProt P9WMR3); assay: DnaB intein splicing inhibitors, dose response, biochemical, cell-free fluorescence (AID 449749); type: functional
T2 sequence (P9WMR3 whole entry): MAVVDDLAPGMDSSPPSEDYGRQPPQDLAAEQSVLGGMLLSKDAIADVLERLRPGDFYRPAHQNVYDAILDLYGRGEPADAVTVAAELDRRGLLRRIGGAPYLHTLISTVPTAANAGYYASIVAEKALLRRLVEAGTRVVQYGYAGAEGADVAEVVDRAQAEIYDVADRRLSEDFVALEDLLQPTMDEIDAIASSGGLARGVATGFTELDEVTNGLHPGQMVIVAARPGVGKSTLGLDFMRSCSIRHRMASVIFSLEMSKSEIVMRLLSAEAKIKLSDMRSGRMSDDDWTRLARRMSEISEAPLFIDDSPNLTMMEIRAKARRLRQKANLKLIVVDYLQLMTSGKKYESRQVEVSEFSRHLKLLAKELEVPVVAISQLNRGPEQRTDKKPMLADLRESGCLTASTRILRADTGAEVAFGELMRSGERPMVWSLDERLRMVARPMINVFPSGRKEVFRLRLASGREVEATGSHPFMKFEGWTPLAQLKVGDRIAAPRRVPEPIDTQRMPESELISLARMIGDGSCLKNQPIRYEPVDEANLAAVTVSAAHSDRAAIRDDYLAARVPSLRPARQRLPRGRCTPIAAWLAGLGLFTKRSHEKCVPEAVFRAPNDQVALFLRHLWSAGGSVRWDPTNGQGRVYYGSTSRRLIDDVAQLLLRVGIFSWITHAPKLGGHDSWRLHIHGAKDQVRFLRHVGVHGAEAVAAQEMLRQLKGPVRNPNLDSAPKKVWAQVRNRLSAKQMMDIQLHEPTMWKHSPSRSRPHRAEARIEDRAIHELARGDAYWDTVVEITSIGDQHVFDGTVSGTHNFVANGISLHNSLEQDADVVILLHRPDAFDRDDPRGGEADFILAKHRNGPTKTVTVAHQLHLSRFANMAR

Protein RecA = target: T3, Protein RecA (Mycobacterium tuberculosis, UniProt P9WHJ3); assay: Fluorescence Cell-Free Homogeneous Dose Retest to Identify Inhibitors of RecA-Intein Splicing Activity. [Related pubchem assays (depositor defined):AID2097, AID2223, AID489010, AID492950]; type: functional
T3 sequence (P9WHJ3 whole entry): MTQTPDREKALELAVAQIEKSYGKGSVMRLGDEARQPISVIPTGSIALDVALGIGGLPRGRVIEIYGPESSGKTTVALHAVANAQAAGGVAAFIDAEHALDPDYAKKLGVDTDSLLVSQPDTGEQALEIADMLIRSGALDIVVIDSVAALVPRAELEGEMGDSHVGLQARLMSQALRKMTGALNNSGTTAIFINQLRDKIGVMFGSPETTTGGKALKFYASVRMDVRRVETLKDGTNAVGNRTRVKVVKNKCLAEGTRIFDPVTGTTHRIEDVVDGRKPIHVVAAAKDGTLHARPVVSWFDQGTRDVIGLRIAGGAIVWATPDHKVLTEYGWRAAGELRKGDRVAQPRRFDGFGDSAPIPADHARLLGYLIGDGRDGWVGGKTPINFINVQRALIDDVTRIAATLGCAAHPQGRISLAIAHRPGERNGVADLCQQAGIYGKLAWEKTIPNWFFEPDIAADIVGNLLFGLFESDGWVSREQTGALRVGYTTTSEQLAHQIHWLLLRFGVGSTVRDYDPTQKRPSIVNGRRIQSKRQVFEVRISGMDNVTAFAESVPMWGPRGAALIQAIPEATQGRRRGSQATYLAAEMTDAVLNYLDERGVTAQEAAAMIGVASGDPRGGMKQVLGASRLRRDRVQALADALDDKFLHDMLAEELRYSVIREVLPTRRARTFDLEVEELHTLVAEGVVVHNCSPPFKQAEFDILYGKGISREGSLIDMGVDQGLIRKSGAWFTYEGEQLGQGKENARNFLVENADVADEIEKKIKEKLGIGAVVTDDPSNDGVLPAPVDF

Genome polyprotein = Genome polyprotein (dengue virus type 2, UniProt P29990); assay: flavivirus cap methylation enzyme inhibition – biochemical, confirmation dose response, primary screen (AID 588689); type: functional
Sequence of Genome polyprotein (P29990 2492-3391 limits assumed): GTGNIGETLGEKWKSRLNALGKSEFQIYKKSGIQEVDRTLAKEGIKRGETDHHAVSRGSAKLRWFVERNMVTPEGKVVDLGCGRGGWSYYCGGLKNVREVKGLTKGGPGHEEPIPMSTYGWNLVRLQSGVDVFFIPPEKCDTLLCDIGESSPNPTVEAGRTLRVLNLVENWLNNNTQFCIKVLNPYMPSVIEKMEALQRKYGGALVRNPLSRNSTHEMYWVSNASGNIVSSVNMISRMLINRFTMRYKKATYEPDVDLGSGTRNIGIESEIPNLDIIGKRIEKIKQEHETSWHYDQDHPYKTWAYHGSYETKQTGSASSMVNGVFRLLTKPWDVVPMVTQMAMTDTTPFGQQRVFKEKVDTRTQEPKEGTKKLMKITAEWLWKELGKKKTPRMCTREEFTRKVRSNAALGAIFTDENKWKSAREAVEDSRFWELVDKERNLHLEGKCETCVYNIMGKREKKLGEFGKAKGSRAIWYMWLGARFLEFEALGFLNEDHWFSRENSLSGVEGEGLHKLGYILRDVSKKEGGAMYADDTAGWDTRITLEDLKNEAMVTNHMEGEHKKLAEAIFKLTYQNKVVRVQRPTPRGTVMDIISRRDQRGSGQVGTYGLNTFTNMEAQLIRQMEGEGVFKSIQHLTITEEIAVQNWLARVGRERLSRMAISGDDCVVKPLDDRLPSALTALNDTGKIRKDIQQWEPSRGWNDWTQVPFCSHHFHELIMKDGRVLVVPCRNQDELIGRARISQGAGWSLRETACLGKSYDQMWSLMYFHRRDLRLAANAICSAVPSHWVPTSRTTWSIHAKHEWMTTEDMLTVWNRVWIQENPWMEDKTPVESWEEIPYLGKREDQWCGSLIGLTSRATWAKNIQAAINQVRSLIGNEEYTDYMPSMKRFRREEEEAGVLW

[4] = non-specific 3'UTR reporter inhibition in Clone20-Shn3RL – cell-based, Renilla luciferase, cherry-picked, counter-screen for Shn3 inhibitor project, dose response (AID 624133); type: functional
[5] = reduction of Shn3 3'UTR-driven luciferase in osteoblasts – cell-based, Clone20 osteoblasts, firefly luciferase, cherry-picked, dose response (AID 624132); type: functional;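 further: firefly luciferase luminescence from reporter carrying the Shn3 3'UTR in osteoblasts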
[6] = target: Glyceraldehyde-3-phosphate dehydrogenase (Homo sapiens, UniProt P04406)
Sequence of Glyceraldehyde-3-phosphate dehydrogenase (P04406 whole entry): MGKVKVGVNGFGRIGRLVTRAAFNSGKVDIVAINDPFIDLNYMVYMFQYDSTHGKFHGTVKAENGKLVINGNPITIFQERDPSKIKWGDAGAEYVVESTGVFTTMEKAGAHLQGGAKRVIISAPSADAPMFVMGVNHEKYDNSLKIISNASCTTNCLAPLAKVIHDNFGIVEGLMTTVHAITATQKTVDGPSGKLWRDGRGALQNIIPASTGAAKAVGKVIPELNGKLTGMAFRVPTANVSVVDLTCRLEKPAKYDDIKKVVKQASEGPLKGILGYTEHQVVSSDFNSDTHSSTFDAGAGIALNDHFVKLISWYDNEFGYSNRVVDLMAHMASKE

[7] = target: T4, DNA repair protein RAD52 homolog (Homo sapiens, UniProt P43351); type: functional, biochemical
T4 sequence (P43351 whole entry): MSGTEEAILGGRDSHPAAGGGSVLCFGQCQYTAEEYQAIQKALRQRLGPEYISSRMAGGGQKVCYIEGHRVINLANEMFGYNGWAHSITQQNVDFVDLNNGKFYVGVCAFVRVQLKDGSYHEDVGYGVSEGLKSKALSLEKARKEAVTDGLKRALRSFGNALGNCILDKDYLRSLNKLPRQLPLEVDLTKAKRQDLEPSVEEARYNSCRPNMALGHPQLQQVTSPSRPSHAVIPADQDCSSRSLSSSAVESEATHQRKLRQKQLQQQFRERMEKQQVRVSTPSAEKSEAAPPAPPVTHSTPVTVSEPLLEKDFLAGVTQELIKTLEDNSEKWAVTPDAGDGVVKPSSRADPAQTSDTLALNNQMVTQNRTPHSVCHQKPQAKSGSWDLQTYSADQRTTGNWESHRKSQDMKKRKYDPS

[8] = Luminescence Cell-Based Dose Response HTS to Identify Inhibitors of 5'UTR Stem-Loop Driven Prion Protein mRNA Translation in H4 Neuroglioblastoma Cells. [Related pubchem assays: 1827 (Project Summary), 1813 (Primary HTS)]; type: functional
[9] = luciferase reporter signal suppression in cells – H4 neuroglioma cells, luminescence, dose response (AID 1990); type: functional, cell-based
[10] = alpha-synuclein stem-loop luciferase translation blockers – H4 neuroglioma cells, luminescence, confirmation (AID 1988); type: functional, cell-based

Compound: CCCc1ccc(OCC(=O)NNC(=S)NC(=O)c2ccco2)cc1
- EC50 [1]: 0.069 µM (active)
- EC50 [2]: 6.68 µM (active)
- EC50 (Streptococcus): 1.39 µM (active)

Compound: Cc1cccc(CS(=O)(=O)c2ncc(Cl)c(C(=O)Nc3nnc(C(C)C)s3)n2)c1
- CC50 (Vero): 25.6 µM (active)
- AC50 [3]: 1.2 µM (active)
- EC50 (Protein RecA): 0.312 µM (active)
- IC50 (Genome polyprotein): 94.3 µM (active)
- AC50 [4]: 4.36 µM (active)
- AC50 [5]: 1.62 µM (active)

Compound: Cc1onc(-c2ccccc2Cl)c1C(=O)Nc1ccc(S(N)(=O)=O)cc1
- IC50 [6]: > 100 µM (not active)

Compound: COc1ccc(/N=c2\oc3c(OC)cccc3cc2C(=O)NCc2ccco2)c(OC)c1
- CC50 (Vero): > 40 µM (active)
- IC50 (Genome polyprotein): 40.8 µM (active)

Compound: CN(C)CCNC(=O)c1ccc(-c2cn3c(-c4ccc(Oc5ccccc5)cc4)cnc3cn2)cc1
- AC50 [7]: 5.06 µM (active)

Compound: Cc1ccc(NC(S)=NCCc2c[nH]cn2)cc1C
- EC50 [2]: 0.267 µM (active)

Compound: O=C(NCCCCCCCN1CCCCCCC1)C(C1CCCCC1)C1CCCCC1
- AC50 [7]: 8.88 µM (active)

Compound: Cc1onc(-c2ccccc2Cl)c1C(=O)NCc1ccccn1
- EC50 [8]: > 120 µM (not active)
- EC50 [9]: > 120 µM (not active)
- EC50 [10]: > 120 µM (not active)
